The values that follow are results of earlier work, collected in patent publication US20180311347A1, “POLYMORPHISMS IN CACHEXIA PREDICT CLINICAL OUTCOMES OF COLORECTAL CANCER PATIENTS RECEIVING IRINOTECAN AND BEVACIZUMAB” (University of Southern California, priority 2017, published 2018).

SMILES strings stand for the structures.

In the data set the test system is type I activin like receptor.

For `NC(=O)c1ccc(-c2nc(-c3ccc4c(c3)OCO4)c(-c3ccccn3)[nH]2)cc1` [SB431542], the VEGF expression entry is “decrease VEGF expression” and the angiogenesis entry is listed as “inhibit angiogenesis”.
